{
  "source": "paper PMC10439028",
  "about": "“SGLT5 is the renal transporter for 1,5-anhydroglucitol, a major player in two rare forms of neutropenia” (Cellular and Molecular Life Sciences: CMLS, 2023)",
  "key": {"hSGLT5 Asn96Ile": {"biological_target": "T1, hSGLT5 Asn96Ile (Homo sapiens, UniProt A0PJK1, N96I)", "T1 construct": "pUB83-hSGLT5-iso2 as well as the various SGLT5 mutants obtained were used to transduce HEK293T cells; expressed in transfected cells; host or cells: HEK293T, lentiviral transduction (pUB83)", "T1 sequence (A0PJK1 1-596 N96I)": "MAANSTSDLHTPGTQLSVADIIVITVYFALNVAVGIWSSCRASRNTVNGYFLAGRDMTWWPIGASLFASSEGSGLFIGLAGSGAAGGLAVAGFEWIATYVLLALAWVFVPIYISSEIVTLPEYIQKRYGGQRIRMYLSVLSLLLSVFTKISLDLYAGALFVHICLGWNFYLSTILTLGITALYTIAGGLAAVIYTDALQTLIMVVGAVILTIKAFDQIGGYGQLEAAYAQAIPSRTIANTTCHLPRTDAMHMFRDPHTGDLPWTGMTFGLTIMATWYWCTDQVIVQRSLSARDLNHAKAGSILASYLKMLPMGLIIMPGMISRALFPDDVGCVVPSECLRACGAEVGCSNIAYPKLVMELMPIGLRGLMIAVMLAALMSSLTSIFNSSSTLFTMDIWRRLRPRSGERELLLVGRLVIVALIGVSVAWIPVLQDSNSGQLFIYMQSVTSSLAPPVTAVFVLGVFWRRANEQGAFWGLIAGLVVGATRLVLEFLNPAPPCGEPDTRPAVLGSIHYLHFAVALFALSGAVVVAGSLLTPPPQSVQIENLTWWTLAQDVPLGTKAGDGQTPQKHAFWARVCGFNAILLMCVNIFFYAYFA", "assay": "1,5-AG uptake in HEK293T cells overexpressing SGLT5 variant Asn96Ile", "type": "cell-based", "procedure": "(§1) For a typical transporter experiment we proceeded as follows. […] To minimize cell loss during the various washing steps in the radioactive uptake experiments, the wells where the cells were seeded were previously coated with poly- D-lysine, which improved their adhesion to the plastic surface of the wells. For this, each well of the 24-well plates was treated with 200 µl of a 0.01% poly-L-lysine solution for 10 min, washed 3 times with 1 ml of sterilized water and left to dry for 2 h. Only then could the 24-well plates be seeded with the appropriate cell lines and cultured overnight at 37 °C in 5% CO2.\n(§2) On day two, the radioactive uptake assay could be performed. The cell culture media was removed by aspiration and cells were incubated for 20 min at 37 °C and 5% CO2 with a basal medium (10 mM HEPES, pH 7.4, 1 mM CaCl2, 1 mM MgCl2, 2 mM KCl) containing 140 mM choline chloride to deplete intracellular Na^2+ ions. […]\n(§3) Once the uptake medium was added to the cells, the plates were incubated at 37 °C in 5% CO2 during the required time. […] In each experiment, the transport activities were calculated after subtracting a “blank” value, corresponding to the radioactivity in the appropriate control cells (HEK293T cells that were stably or transiently transfected with one of the parent plasmids pEF6/MycHisA, pEF6HisB, pUB82 or pUB83 with no inserted cDNA) that were analyzed in parallel. […]"}, "hSGLT5 Ala522Val": {"biological_target": "T2, hSGLT5 Ala522Val (Homo sapiens, UniProt A0PJK1, A522V)", "T2 construct": "pUB83-hSGLT5-iso2 as well as the various SGLT5 mutants obtained were used to transduce HEK293T cells; expressed in transfected cells; host or cells: HEK293T, lentiviral transduction (pUB83)", "T2 sequence (A0PJK1 1-596 A522V)": "T1 sequence (A0PJK1 1-596 N96I) with I96N, A522V", "assay": "1,5-AG uptake in HEK293T cells overexpressing SGLT5 variant Ala522Val", "type": "cell-based", "procedure": "as §1, §2, §3"}},
  "note": "Substitutions are numbered along the chain they refer to.",
  "data": [
    {"smiles": "OC[C@H]1OC[C@H](O)[C@@H](O)[C@@H]1O", "note": "[1,5-AG, 1,5-anhydroglucitol]", "values": [
      {"measurement": "Vmax", "setting": "hSGLT5 Asn96Ile", "result": "19.5 ± 3", "unit": "pmol/min/10^5cells"},
      {"measurement": "reduction of transport efficiency compared to SGLT5", "setting": "hSGLT5 Asn96Ile", "result": "sixfold"},
      {"measurement": "Vmax", "setting": "hSGLT5 Ala522Val; variant Ala522Val", "result": "18.3 ± 0.5", "unit": "pmol/min/10^5cells"},
      {"measurement": "effect of mutation on ability of SGLT5 to transport 1,5-AG", "setting": "hSGLT5 Ala522Val; variant Ala522Val (control)", "result": "no effect"}
    ]}
  ]
}
